Laboratory results from patent publication US20250195523A1, “ORGANIC MOLECULES FOR TREATING MYELIN PATHOLOGIES” (ICM (INSTITUT DU CERVEAU ET DE LA MOELLE ÉPINIÈRE), priority 2022, published 2025).

Assays:
[1] = tested on: primary OPCs purified by magnetic cell sorting (MACS) from neonatal cortices; test: Primary OPC cultures purified by MACS, morphological complexity of OLs; type: cell-based, mice; settings: OPCs treated for two days; compared to vehicle; FIG. 2B
Experimental: Brains were collected from PLPGFP and P4 Swiss mice […] and washed 3 times in PBS 1× (Invitrogen) with 1% of penicillin/streptomycin (Sigma). Cortex and corpus callosum were dissected and dissociated using neural tissue dissociation kit (T) (Miltenyi biotec) and with dissociator (gentleMACS Octo Dissociator, Miltenyi Biotec). OPC magnetic cell sorting was performed using anti-PDGFRα-coupled-beads (CD140a-PDGFRα MicroBead Kit, Miltenyi biotec) and MultiMACS Cell24 Separator Plus (Miltenyi biotec). Cells were collected in PBS and amplified for 2 days in a proliferating medium (with growth factors IGF, EGF, FGF, and PDGFα). Then, 40.000 cells were plated in 24 well plates adherent on coverslips, beforehand coated with poly-ornithine (Merck) diluted in 4 volumes of H2O and washed 3 times. Successively, for 2 days of proliferation and differentiation, medium was added with drugs at 250 nM, 500 nM and 750 nM, and their respective vehicles (DMSO, PBS). Cells were fixed in 4% PBS-paraformaldehyde (thermo fisher) for 10 minutes and washed 3 times in PBS-1×.
For coated-coverslip, blocking was performed in a moist chamber for 30 mn at room temperature (RT) in the blocking buffer (0.05% Triton X-100/10% normal goat serum/PBS). Then, coverslip were incubated for 30 mn with the following primary antibodies at RT. Rat anti-PDGFRα (1:250, BD Biosciences); Mouse anti-CNPase (mlgG1, 1:250; Millipore); Rabbit anti-Btub (1:1000; BABCO); Chicken anti-GFAP (1:500, Avelabs), Mouse anti-MBP (mlgG1, 1:150; Abcam); Rabbit anti-Sox10 (1:1000; Proteintech). Following 3 washing in 0.05% Triton X-100/PBS, coverslips were incubated 30 min at RT in dark with appropriate secondary antibodies conjugated with Alexa Fluor 488, 594 and 647 (1:1000; Molecular Probes or Thermo Fisher) and Dapi (1:5000 from working solution at 5 mg/ml; Life Technologies; D1306). Coverslips were washed 3 times in 0.05% Triton X-100/PBS and mounted with Fluoromount-G (SouthernBiotech).
To evaluate cell specific contribution of the drugs directly in OL differentiation and maturation, we used primary OPCs purified by magnetic cell sorting (MACS) from neonatal cortices (P4).

[2] = tested on: cerebellar slices explants; test: Ex vivo cerebellar organotypic explant culture, differentiation and myelination index; type: cell-based, mice; settings: 750 nM, three days (7-10 DIV); for differentiation index (CC1+/Sox10+ OLs number): compared to negative controls, FIG. 3B
Experimental: We prepared cerebellar organotypic cultures from newborn (P0) mice. Cerebellar parasagittal slices (350 μm thick) were cut on a McIlwain tissue chopper and transferred onto 30 mm diameter Millipore culture inserts with […] (Millicell, Millipore). Slices were maintained in incubators at 37° C., under a humidified atmosphere containing 5% CO2 in six-well-plates containing 1 mL of slice culture media. This medium includes basal medium eagle (Invitrogen), 25% complete HBSS, 27 mM D-glucose, 100 U/mL penicillin/streptomycin, 1 mM glutamine (Sigma) and 5% horse serum (New Zealand origin, heat inactivated; Invitrogen). Medium was renewed every 2 days until 7 DIV, reaching the appropriate culture periods to study OPC differentiation and myelination. […] Slices were collected and fixed for 1 h at RT in PBS-4% paraformaldehyde, washed 3 times in PBS, and incubated 20 min at 4° C. in Clark's solution (95% ethanol/5% acetic acid), then washed 3 times in PBS 1×.
For ex-vivo cerebellar slices, slices were incubated 20 min at 4° C. in Clark's solution (95% ethanol/5% acetic acid), then washed 3 times in PBS 1×. Then, sections were incubated for 1 hour in a blocking buffer (0.2% Triton X-100/4% bovine serum albumin/4% donkey serum/PBS). Slices were incubated for 2 hours with the following primary antibodies at RT: Goat anti-Sox10 (1:100, R&D Systems); Rabbit anti-Calbindin (1:1000; Swant); Rat anti-MBP (1:200; Abcam); Mouse anti-CC1 (IgG2b; 1:100, Calbiochem). Then slices were washed 3 times in PBS/0.1% Triton X-100 and incubated in blocking buffer (dark, RT) for 2 hours with appropriate secondary antibodies conjugated with Alexa Fluor 488, 594 and 647 (1:1000; Molecular Probes or Thermo Fisher) and Dapi (1:5000 from working solution at 5 mg/ml; Life Technologies; D1306). Finally, slices were washed 3 times in PBS/0.1% Triton X-100 after incubation and mounted in Fluoromount-G (SouthernBiotech).
Then, we firstly performed a simpler and faster experimental model using cerebellar slices explants to identify the best drugs having pro-oligodendrogenenic and pro-myelinating activities in this ex vivo model, to be used in the in vivo analyses. Indeed, this model allowed us to better assess later aspects of OL maturation, myelination, and cytotoxicity in a richer cellular system, also containing immune cells (microglia/macrophages) that are known to influence oligodendrogenesis and (re) myelination. In this model, the start of myelination takes place after 7 days in culture (FIG. 3A). […] We then analyzed the effect in terms of OL numbers (CC1+/Sox10+ cells) and myelination (MBP labeling on CaBP+ Purkinje cell axons), by immunodetection of all four markers in the same sections. We calculated the differentiation index as the ratio of Sox10+ cells being CC1+, and the myelination index as the ratio CaBP+ axons being MBP+. […] On the one hand, we used the adult focal de/remyelination induced by intracerebral injection of […] (LPC) mimicking de/remyelination of MS, and on the other hand, the neonatal chronic hypoxia model, mimicking PTB hypomyelination.

[3] = tested on: neural progenitor cells (NPCs) obtained from the neonatal SVZ; test: Neonatal neural progenitor cell (neurosphere-derived) differentiation cultures, immunodetection of neural lineages; type: cell-based, mice; settings: for increase in iOLs (Sox10high cells): fold-change between drug treatment and vehicle, FIG. 1G; for neurogenesis (neuronal β-III-tubulin+ cells): 750 nM, compared to vehicle, FIG. 1D
Experimental: NSC medium was prepared using up to 50 ml DMEM/F12 (Gibco), containing 666 μl glucose at 45% (Sigma), 0.5 ml penicillin/streptomycin (Sigma), 250 μl HEPES buffer at 1M (Gibco), 500 μl mL N2 supplement (Gibco), 1 mL B27 supplement (Gibco) and with growth factors Insulin 20 μg/ml (Sigma), EGF at 20 ng/ml (Peprotech), FGF 10 ng/ml (Peprotech). Brains were collected from Swiss mice at P0 and washed 3 times in PBS 1× (Invitrogen) with 1% of penicillin/streptomycin (Sigma). SVZ was dissected, transferred in fresh NSC medium and dissociated with pipette. Cells were amplified in a 25 ml flask (1 million of cells for 5 mL of medium), and maintained in a humidified atmosphere at 37° C. and 5% of CO2. Two-three days after, cells have grown as floating neurospheres and were collected by centrifugation at 500 g for 5 mn, dissociated before adding proliferating NSC medium. After 2 passages, 30.000 cells were plated in 24 well plates adherent on coverslips, beforehand coated with poly-ornithine (Merck) diluted in 4 volumes of H2O and washed 3 times. Drugs were added at different ranges of concentration (250 nM, 500 nM and 750 nM) and their respective vehicles (DMSO, or PBS). Medium (including drugs or vehicle) was changed each 2 days. After 4 days with proliferation factors, a differentiation medium without growth factors was added (with drugs or vehicle) for two days. Cells were washed once in PBS, fixed in 4% PBS-paraformaldehyde (thermofischer) for 10 minutes, and washed 3 times in PBS-1×.
To do so, we first used a culture of mix neural progenitor cells (NPCs) obtained from the neonatal SVZ (postnatal day 1, P1). […] We supplemented the drugs in both the proliferation and differentiation medium to analyze both their effect in neural cell type specification into the different neural lineages, and assess their ability to foster OPC differentiation. […]

[4] = tested on: focal demyelination in the corpus callosum of adult mice; test: Lysolecithin (LPC) induced focal de/remyelination model in adult mice, oral administration in drinking water; type: in vivo; settings: 7 dpl, oral daily
Experimental: We weighted and anesthetized 4 months old RjOrl: SWISS mice (Janvier) with isoflurane (induced at 3%, and maintained at 1.2-1.6%). We induced focal demyelinating lesions by injecting 0.5 μl of a solution of 1% lysolecithin (LPC, Sigma in 0.9% NaCl solution) into the corpus callosum. To do so, a glass-capillary connected to a 10 μl Hamilton syringe was fixed and oriented through stereotaxic apparatus (coordinates: 1 mm lateral, 1.3 mm rostral to Bregma, 1.7 mm deep to brain surface). Animals were left to recover for a few hours in a warm chamber. […] Mice was perfused at 2% cold paraformaldehyde (thermos fisher) at 7 DPI.
For in-vivo cryosections (14-μm thick) of lesions, immunohistochemistry was performed after 30 mn drying at RT in a moist chamber. For myelin staining, ethanol treatment (100%) was performed for 10 mn at RT. Briefly, sections were permeabilized and blocked in a blocking buffer for 1 h (0.05% Triton X-100/10% normal goat serum/PBS). Then, cryosections were incubated overnight with the following primary antibodies at 4° C.: Mouse anti-APC (CC1 IgG2B; 1:100, calbiochem); Rabbit anti-Olig2 (1:500; Millipore); Mouse anti-Olig1 (IgG1; 1:500; NeuroMab); Rat anti-CD68 (1:500, AbD SEROTEC/BioRad); Rabbit anti-IBA1 (1:500, Wako Fujifilm); Mouse anti-MOOG (mlgG1, 1:20; Hybridoma). Then sections were washed 3 times in 0.05% Triton X-100/PBS and incubated 1 hour at RT with appropriate secondary antibodies conjugated with Alexa Fluor 488, 594 and 647 (1:1000; Molecular Probes or Thermo Fisher) and Dapi (1:5000 from working solution at 5 mg/ml; Life Technologies; D1306). Sections were washed 3 times in 0.05% Triton X-100/PBS and mounted with Fluoromount-G (SouthernBiotech).
We analyzed the lesions at 7 days post-lesion (7 dpl), when newly formed OLs have started to remyelinate the lesion in this model. The lesion area was identified by immunodetection of the high cellular density with DAPI staining, reduction of myelin with myelin oligodendrocyte glycoprotein (MOG), and abundance of microglia/macrophages with Iba1 and Cd68. We determined the effect of the drugs to promote oligodendrogenesis at the lesion site by combinatory immunodetection of Olig2, CC1 and Olig1, allowing to distinguish OPCs (Olig2^high/CC1^−/Olig1^nuclear-cyto cells) and three stages in OL differentiation: iOL1 (Olig2^high/CC1^high/Olig1^− cells), iOL2 (Olig2^high/CC1^high/Olig1^high-cyto cells), and mOL (Olig2^low/CC1^low/Olig1^low cells). […] Given the increase in OL differentiation by the drugs administration, without diminishing the pool of OPCs in the lesion area, we assessed for the proliferative status of OPCs, using Mcm2 and Ki67 proliferative markers, finding that both drugs promote a ˜2-fold increase in the density of proliferative OPCs (FIG. 4D) and in the proportion of proliferative OPCs (FIG. 4E).
To investigate the possible anti-inflammatory and pro-regenerative activity of these drugs, we performed staining for microglia/macrophages (Iba1+ cells), their active phagocytic status (Cd68+ cells), together with myelin (MOG) and cell density (DAPI) to identify the lesion area.

Cc1cc2c(cc1S(N)(=O)=O)S(=O)(=O)CCC2 [Sm1, Meticrane]
morphological complexity of OLs (PLP+ cells) [1]: strongly increased | differentiation index (CC1+/Sox10+ OLs number) [2]: increased differentiation index

CC(N)CCCC(C)(C)O (stereo not shown) [Sm2, Heptaminol]
morphological complexity of OLs (PLP+ cells) [1]: strongly increased | differentiation index (CC1+/Sox10+ OLs number) [2]: increased differentiation index | myelination process (MBP+/CaBP+), myelination index ([2]; compared to vehicle, FIG. 3C): robust increase

C[C@@H]1C(=O)O[C@H]2C[C@@]34[C@H]5C[C@@H](C(C)(C)C)[C@]36[C@@H](OC(=O)[C@@H]6O)O[C@@]4(C(=O)O5)[C@]21O [Sm6, Ginkgolide A]
morphological complexity of OLs (PLP+ cells) [1]: strongly increased

C#C[C@]1(O)CC[C@H]2[C@@H]3CCC4=CC(=O)CC[C@@H]4[C@H]3CC[C@@]21CC [Sm7, Levonorgestrel]
increase in iOLs (Sox10high cells) [3]: increased tendency not reaching statistical significance

S=C(NC1CCCCC1)N1CCC(c2cnc[nH]2)CC1 [Sm9, Thioperamide]
neurogenesis (neuronal β-III-tubulin+ cells) [3]: positive effect

OC(CCN1CCCCC1)(c1ccccc1)C1CCCCC1 (stereo not shown) [Sm10, Trihexyphenidyl]
increase in iOLs (Sox10high cells) [3]: increased tendency not reaching statistical significance

Nc1nc(=O)c2c([nH]1)NCC(CNc1ccc(C(=O)N[C@@H](CCC(=O)O)C(=O)O)cc1)N2C=O.[Ca+2] (stereo partly shown) [Sm11, Calcium folinate]
neurogenesis (neuronal β-III-tubulin+ cells) [3]: positive effect | morphological complexity of OLs (PLP+ cells) [1]: strongly increased | number of oligodendroglial cells in the remyelinating area (Olig2+ cells) ([4]; sm5 at 5 μg per g, control 942.5±265.7, FIG. 4B): 1558±331 Olig2+ cells per mm^2 | density of OPCs (Olig2high/CC1−/Olig1nuclear-cyto cells) in the lesion area ([4]; FIG. 4C): did not change | pro-regenerative microglia (Arg1+ cells) ([4]; FIG. 4I): corresponding increase | actively phagocytic microglia/macrophages (Cd68+ cells) ([4]; control 22.45%, FIG. 4H): 12.13%±5.14 | surface occupied by Iba1+ microglia/macrophages in the lesion area ([4]; control 33.64%, FIG. 4G): 27.28%±4.16 | increase of each stage of OL differentiation (iOL1, iOL2 & mOL) ([4]; versus control): ~2 fold | increase in the density of proliferative OPCs (Mcm2, Ki67 markers) ([4]; versus control, FIG. 4D): ~2 fold | increase in the proportion of proliferative OPCs ([4]; versus control, FIG. 4E): ~2 fold
